Source: patent US20030124554A1, “Screening method for compounds capable of modularing egr-1-regulated expression” (priority 2002, published 2003)

Test system: human cell co-culture system
Assay: In vitro angiogenesis co-culture system (angiogenesis kit, TCS Biologicals), tubule formation
Type: cell-based
Conditions: 11 days co-culture; PECAM-1 staining; Egr-1 DNA 0.5-2.5 μg per well, VEGF protein 2 ng/ml, suramin 20 μM
Procedure: Egr-1 under the control of the hCMV promoter (Houston et al, Arterioscler. Thromb. Vasc. Biol., 19; 281-289, 1999) was transfected into a human cell co-culture system designed to measure angiogenesis in vitro. The angiogenesis kit (TCS Biologicals) was used as described according to the manufacturer's instructions using VEGF protein (2 ng/ml) and suramin (20 μM) as positive and negative controls respectively for angiogenesis.
Optimisation of transfection in the co-culture system was performed using pGL3 control luciferase (Promega) with 1.0 μg and 0.5 μg CMV-β gal as a normalising plasmid for transfection control. Two ratios of lipid: DNA (v/w) were used; 2:1 and 4:1 (FIG. 3a.). CMV Egr-1 DNA was transfected at 0.5, 1.0, 1.5 and 2.5 μg per well in triplicate in a 24 well microtitre plate using Mirus Transit reagent (Cambridge Biosciences) at a ratio of 2:1 v/w DNA. VEGF protein positive control and suramin negative control was added to triplicate wells. After 11 days co-culture angiogenesis was determined by staining of cells for the endothelial cell marker PECAM-1 and visualisation using BCIP/NBT substrate.
Representative images of tubule formation using all four doses of Egr-1 expression plasmid together with VEGF (positive control) and suramin (negative control) were captured and processed by image analysis using Quantimet 600 image analyser and associated software. […]

With `Cc1ccc(C(=O)Nc2ccc(S(=O)(=O)O)c3cc(S(=O)(=O)O)cc(S(=O)(=O)O)c23)cc1NC(=O)c1cccc(NC(=O)Nc2cccc(C(=O)Nc3cc(C(=O)Nc4ccc(S(=O)(=O)O)c5cc(S(=O)(=O)O)cc(S(=O)(=O)O)c45)ccc3C)c2)c1` [suramin] the tubule formation was “Decreased tubule formation”.
